Consider 26 compounds from patent US11247965B2 (VenatoRx Pharmaceuticals, Inc., priority 2017, dated 2022).

Some results are limits rather than exact numbers.

The test system of data set [1] is HBV replication in HepAD38 cells. The experiment in a line: Anti-HBV activity in HepAD38 cells, extracellular HBV DNA by QPCR. It is filed as cell-based, HBV (genotype D, serotype ayw). Conditions: Hepatitis B virus, HePAD38, 168 h, read-out: Anti-HBV EC50, HepAD38 cells, extracellular HBV DNA by QPCR, 7 days of incubation. The gist of the method:
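HepAD38 cells (HepG2 with tet-repressible HBV genotype D genome) seeded overnight, tetracycline removed, then treated 7 days with compounds (half-log dilutions, 30 μM–10 nM; 1:200 from DMSO). Supernatant HBV DNA quantified by QPCR against standard curve; % inhibition vs vehicle, EC50 by 4-parameter fit.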

Data set [2] in a line: In vitro cytotoxicity, MTT cell viability assay in HepG2 cells. It is filed as cell-based. Conditions: human, Cytotoxicity CC50. The gist of the method: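 Viability measured by MTT conversion, absorbance at 492 nm, as percent of vehicle-treated wells. Compounds spanned 30 μM to 1.0 nM in half-log steps over a 7-day exposure of parental HepG2 cells; CC50 derived by 4-parameter curve fit.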
A general note: Tetrazolium dyes change colour on reduction, which living cells bring about.

Take `O=C(Nc1ccc(F)c(Br)c1)c1ccc(Cl)c(C(F)(F)C(=O)N2CCC(O)CC2)c1` [Example 43, N-(3-bromo-4-fluorophenyl)-4-chloro-3-(1,1-difluoro-2-(4-hydroxypiperidin-1-yl)-2-oxoethyl)benzamide]: the half-maximal effective concentration (EC50) (in general, the concentration that produces a half-maximal response) in data set [1] was less than 5 µM. Further, the cytotoxic concentration (CC50) (in general, the concentration that lowers cell viability or growth by half) at 7 days in data set [2] was in the range of 5 to 30 µM.
The matching figures for `Cc1cc(NC(=O)c2ccc(F)c(C(F)(F)C(=O)Nc3nc4c(s3)CCNC4)c2)ccc1F` [Example 309, 3-(1,1-difluoro-2-oxo-2-((4,5,6,7-tetrahydrothiazolo[4,5-c]pyridin-2-yl)amino)ethyl)-4-fluoro-N-(4-fluoro-3-methylphenyl)benzamide]: 5 to 30 µM and 5 to 30 µM.
With `Cc1cc(NC(=O)c2ccc(F)c(C(F)(F)C(=O)N3[C@H](C)CN(S(=O)(=O)C4CC4)C[C@@H]3C)c2)ccc1F` [Example 292, 3-(2-((2S,6R)-4-(cyclopropylsulfonyl)-2,6-dimethylpiperazin-1-yl)-1,1-difluoro-2-oxoethyl)-4-fluoro-N-(4-fluoro-3-methylphenyl)benzamide], the EC50 in data set [1] is less than 5 µM. Moreover, the half-maximal cytotoxic concentration (CC50) at 7 days in data set [2] fell in the range of 5 to 30 µM.
In the case of `Cc1cc(NC(=O)c2ccc(F)c(C(F)(F)C(=O)N3C4CC[C@@H]3C[C@@H](C(N)=O)C4)c2)ccc1F` [Example 257, (1R,3s,5S)-8-(2,2-difluoro-2-(2-fluoro-5-((4-fluoro-3-methylphenyl)carbamoyl)phenyl)acetyl)-8-azabicyclo[3.2.1]octane-3-carboxamide], in data set [1], the EC50 was less than 5 µM. In data set [2], the CC50 at 7 days is 5 to 30 µM.
Turning to `Cc1cc(NC(=O)c2ccc(C(F)(F)C(=O)N3CCC(O)CC3)n2C)ccc1F` [Example 99, 5-(1,1-difluoro-2-(4-hydroxypiperidin-1-yl)-2-oxoethyl)-N-(4-fluoro-3-methylphenyl)-1-methyl-1H-pyrrole-2-carboxamide], in data set [1], the EC50 was greater than 30 µM. Besides, the 50% cytotoxic concentration (CC50) at 7 days in data set [2] is greater than 30 µM.
For the compound `Cc1cc(NC(=O)c2ccc(F)c(C(F)(F)C(=O)N3CCC(O)C(F)(F)C3)c2)cc(F)c1F` (stereo not shown) [Example 250, 3-(2-(3,3-difluoro-4-hydroxypiperidin-1-yl)-1,1-difluoro-2-oxoethyl)-N-(3,4-difluoro-5-methylphenyl)-4-fluorobenzamide], the half-maximal effective concentration (EC50) in data set [1] is less than 5 µM. In addition, the half-maximal cytotoxic concentration (CC50) at 7 days in data set [2] was 5 to 30 µM.
The corresponding values for `O=C(Nc1ccnc(Cl)c1)c1ccc(F)c(C(F)(F)C(=O)N2[C@@H]3CC[C@H]2C[C@H](O)C3)c1` [Example 197, N-(2-chloropyridin-4-yl)-3-(1,1-difluoro-2-((1R,3s,5S)-3-hydroxy-8-azabicyclo[3.2.1]octan-8-yl)-2-oxoethyl)-4-fluorobenzamide] are less than 5 µM and less than 5 µM.
On to `O=C(Nc1ccc(Cl)cc1)c1ccc(Cl)c(C(F)(F)C(=O)N2CCC(O)CC2)c1` [Example 39, 4-chloro-N-(4-chlorophenyl)-3-(1,1-difluoro-2-(4-hydroxypiperidin-1-yl)-2-oxoethyl)benzamide], for which, in data set [1], the EC50 lay in the range of 5 to 30 µM. The cytotoxic concentration (CC50) at 7 days in data set [2] is 5 to 30 µM.
On to `Cc1cc(NC(=O)c2ccc(N)c(C(F)(F)C(=O)N3CCC(O)CC3)c2)ccc1F` [Example 299, 4-amino-3-(1,1-difluoro-2-(4-hydroxypiperidin-1-yl)-2-oxoethyl)-N-(4-fluoro-3-methylphenyl)benzamide], for which, in data set [1], the concentration for a half-maximal effect (EC50) is less than 5 µM. The compound also registered a CC50 at 7 days in data set [2] of 5 to 30 µM.
Take `Cc1cc(NC(=O)c2cc(C(F)(F)C(=O)N[C@@H]3CCCC[C@H]3O)n(C)c2)ccc1F` [Example 127, 5-(1,1-difluoro-2-(((1R,2R)-2-hydroxycyclohexyl)amino)-2-oxoethyl)-N-(4-fluoro-3-methylphenyl)-1-methyl-1H-pyrrole-3-carboxamide]: in data set [1], the 50% effective concentration (EC50) was less than 5 µM. Also, in data set [2], the CC50 at 7 days is greater than 30 µM.
Regarding `Cc1cc(NC(=O)c2ccc(Cl)c(C(F)(F)C(=O)N3[C@@H]4CC[C@H]3C[C@H](O)C4)c2)ccc1F` [Example 221, 4-chloro-3-(1,1-difluoro-2-((1R,3s,5S)-3-hydroxy-8-azabicyclo[3.2.1]octan-8-yl)-2-oxoethyl)-N-(4-fluoro-3-methylphenyl)benzamide], the concentration giving a half-maximal response (EC50) in data set [1] was less than 5 µM. The compound also registered a CC50 at 7 days in data set [2] of 5 to 30 µM.
The corresponding values for `Cc1cc(NC(=O)c2csc(C(F)(F)C(=O)N3CCCC3)c2)ccc1F` [Example 59, 5-(1,1-difluoro-2-oxo-2-(pyrrolidin-1-yl)ethyl)-N-(4-fluoro-3-methylphenyl)thiophene-3-carboxamide] are less than 5 µM and greater than 30 µM.
With `Cc1cc(NC(=O)c2cccc(C(F)(F)C(=O)N3CCC(O)CC3)c2F)ccc1F` [Example 92, 3-(1,1-difluoro-2-(4-hydroxypiperidin-1-yl)-2-oxoethyl)-2-fluoro-N-(4-fluoro-3-methylphenyl)benzamide], the EC50 in data set [1] was less than 5 µM. This compound also returned a CC50 at 7 days in data set [2] of 5 to 30 µM.
In the case of `Cc1cc(NC(=O)c2ccc(F)c(C(F)(F)C(=O)N3CCC(F)(F)CC3)c2)ccc1F` [Example 278, 3-(2-(4,4-difluoropiperidin-1-yl)-1,1-difluoro-2-oxoethyl)-4-fluoro-N-(4-fluoro-3-methylphenyl)benzamide], the half-maximal effective concentration (EC50) in data set [1] lay within 5 to 30 µM. For the same compound, the CC50 at 7 days in data set [2] is greater than 30 µM.
The corresponding values for `CNC(=O)NCC(=O)N1CC2CN(C(=O)C(F)(F)c3cc(C(=O)Nc4ccc(F)c(C)c4)ccc3F)CC2C1` (stereo not shown) [Example 284, 3-(1,1-difluoro-2-(5-((methylcarbamoyl)glycyl)hexahydropyrrolo[3,4-c]pyrrol-2(1H)-yl)-2-oxoethyl)-4-fluoro-N-(4-fluoro-3-methylphenyl)benzamide] are 5 to 30 µM and greater than 30 µM.
The matching figures for `Cc1cc(NC(=O)c2ccc(C(F)(F)C(=O)NC(C)(C)CO)s2)ccc1F` [Example 82, 5-(1,1-difluoro-2-((1-hydroxy-2-methylpropan-2-yl)amino)-2-oxoethyl)-N-(4-fluoro-3-methylphenyl)thiophene-2-carboxamide]: greater than 30 µM and greater than 30 µM.
The matching figures for `Cc1cc(NC(=O)c2cn(C)c(C(F)(F)C(=O)NC(C)(C)CO)c2C)ccc1F` [Example 129, 5-(1,1-difluoro-2-((1-hydroxy-2-methylpropan-2-yl)amino)-2-oxoethyl)-N-(4-fluoro-3-methylphenyl)-1,4-dimethyl-1H-pyrrole-3-carboxamide]: less than 5 µM and greater than 30 µM.
Turning to `Cc1cc(NC(=O)c2ccc(F)c(C(F)(F)C(=O)N3CCc4nc(N)sc4C3)n2)ccc1F` [Example 303, 6-(2-(2-amino-6,7-dihydrothiazolo[5,4-c]pyridin-5(4H)-yl)-1,1-difluoro-2-oxoethyl)-5-fluoro-N-(4-fluoro-3-methylphenyl)picolinamide], in data set [1], the EC50 is less than 5 µM. For the same compound, the 50% cytotoxic concentration (CC50) at 7 days in data set [2] was in the range of 5 to 30 µM.
The corresponding values for `Cc1cc(NC(=O)c2cc(C(F)(F)C(=O)N3CCC(O)CC3)c(Cl)cc2C)ccc1F` [Example 67, 4-chloro-5-(1,1-difluoro-2-(4-hydroxypiperidin-1-yl)-2-oxoethyl)-N-(4-fluoro-3-methylphenyl)-2-methylbenzamide] are less than 5 µM and greater than 30 µM.
The matching figures for `Cc1cc(NC(=O)c2ccc(F)c(C(F)(F)C(=O)NC3(C#N)CC3)c2)ccc1F` [Example 236, 3-(2-((1-cyanocyclopropyl)amino)-1,1-difluoro-2-oxoethyl)-4-fluoro-N-(4-fluoro-3-methylphenyl)benzamide]: 5 to 30 µM and greater than 30 µM.
For `Cc1cc(NC(=O)c2ccc(F)c(C(F)(F)C(=O)N3[C@@H]4CCC[C@H]3CC(O)C4)c2)ccc1F` (stereo partly drawn) [Example 202, 3-(1,1-difluoro-2-((1R,5S)-3-hydroxy-9-azabicyclo[3.3.1]nonan-9-yl)-2-oxoethyl)-4-fluoro-N-(4-fluoro-3-methylphenyl)benzamide], the EC50 in data set [1] is less than 5 µM. The half-maximal cytotoxic concentration (CC50) at 7 days in data set [2] lay in the range of 5 to 30 µM.
On to `Cc1cc(NC(=O)c2ccc(F)c(C(F)(F)C(=O)N3CCC(N4CCOCC4)CC3)c2)ccc1F` [Example 267, 3-(1,1-difluoro-2-(4-morpholinopiperidin-1-yl)-2-oxoethyl)-4-fluoro-N-(4-fluoro-3-methylphenyl)benzamide], for which, in data set [1], the EC50 fell in the range of 5 to 30 µM. The CC50 at 7 days in data set [2] lay within 5 to 30 µM.
Take `Cc1cc(NC(=O)c2ccc(F)c(C(F)(F)C(=O)N3CCC(C(=O)O)CC3)c2)ccc1F` [Example 118, 1-(2,2-difluoro-2-(2-fluoro-5-((4-fluoro-3-methylphenyl)carbamoyl)phenyl)acetyl)piperidine-4-carboxylic acid]: the EC50 in data set [1] was less than 5 µM. The compound also gave a CC50 at 7 days in data set [2] greater than 30 µM.
`COc1ccccc1NC(=O)C(F)(F)c1cc(C(=O)Nc2ccc(F)c(F)c2)ccc1F` [Example 21, 3-(1,1-difluoro-2-((2-methoxyphenyl)amino)-2-oxoethyl)-N-(3,4-difluorophenyl)-4-fluorobenzamide]: the 50% effective concentration (EC50) in data set [1] fell in the range of 5 to 30 µM. In data set [2], this compound had a half-maximal cytotoxic concentration (CC50) at 7 days of 5 to 30 µM.
Regarding `Nc1nc2c(s1)CN(C(=O)C(F)(F)c1cc(C(=O)Nc3ccc(F)c(Cl)c3)ccc1F)CC2` [Example 279, 3-(2-(2-amino-6,7-dihydrothiazolo[5,4-c]pyridin-5(4H)-yl)-1,1-difluoro-2-oxoethyl)-N-(3-chloro-4-fluorophenyl)-4-fluorobenzamide], in data set [1], the EC50 was less than 5 µM. Besides, the cytotoxic concentration (CC50) at 7 days in data set [2] is 5 to 30 µM.
The corresponding values for `O=C(Nc1ccc(F)cn1)c1ccc(Cl)c(C(F)(F)C(=O)N2CCC(O)CC2)c1` [Example 38, 4-chloro-3-(1,1-difluoro-2-(4-hydroxypiperidin-1-yl)-2-oxoethyl)-N-(5-fluoropyridin-2-yl)benzamide] are greater than 30 µM and greater than 30 µM.
